Source: US20250171438A1 (Agios Pharmaceuticals, Inc., priority 2022, published 2025)

Biological target: T1, human PAH with the R408W mutation (Homo sapiens, UniProt P00439, R408W)
T1 construct: expressed in transfected cells
T1 sequence (P00439 1-452 R408W): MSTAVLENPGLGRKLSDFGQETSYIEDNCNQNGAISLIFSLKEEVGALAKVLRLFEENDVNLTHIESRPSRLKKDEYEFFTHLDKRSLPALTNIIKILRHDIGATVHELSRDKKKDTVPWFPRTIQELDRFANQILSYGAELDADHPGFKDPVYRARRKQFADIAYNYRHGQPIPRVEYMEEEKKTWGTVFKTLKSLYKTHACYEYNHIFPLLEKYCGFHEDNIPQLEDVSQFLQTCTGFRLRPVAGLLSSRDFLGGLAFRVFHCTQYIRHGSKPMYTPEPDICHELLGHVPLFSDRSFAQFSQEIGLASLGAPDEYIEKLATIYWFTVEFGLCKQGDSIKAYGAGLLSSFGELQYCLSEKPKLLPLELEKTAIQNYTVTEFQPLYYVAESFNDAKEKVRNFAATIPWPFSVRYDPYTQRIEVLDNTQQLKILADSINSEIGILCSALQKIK
Assay: Cell Based Phenylalanine Flux Assay
Details: A375 cells expressing human R408W PAH; 24 hrs compound incubation; 13C-Tyrosine by LC-MS; average where tested multiple times; read-out: AC50

| AC50 | SMILES |
| --- | --- |
| < 500 nM | O=C(CC1CC1)N1CCc2[nH]cnc2[C@H]1c1nc2ccc(Br)cc2[nH]1 [Example 945, (S)-1-(4-(6-bromo-1H-benzo[d]imidazol-2-yl)-6,7-dihydro-1H-imidazo[4,5-c]pyridin-5(4H)-yl)-2-cyclopropylethanone] |
| 500 to 1000 nM | O=C(CC1CC1)N1CCc2[nH]cnc2[C@@H]1c1nc2ccc(Br)cc2[nH]1 [Example 946, (R)-1-(4-(6-bromo-1H-benzo[d]imidazol-2-yl)-6,7-dihydro-1H-imidazo[4,5-c]pyridin-5(4H)-yl)-2-cyclopropylethanone] |
| 500 to 1000 nM | O=C(c1cncs1)N1CCc2[nH]cnc2[C@H]1c1nc2ccc(Br)cc2[nH]1 [Example 947, (S)-(4-(6-bromo-1H-benzo[d]imidazol-2-yl)-6,7-dihydro-1H-imidazo[4,5-c]pyridin-5(4H)-yl)(thiazol-5-yl)methanone] |
| 1000 to 5000 nM | O=C(c1cncs1)N1CCc2[nH]cnc2[C@@H]1c1nc2ccc(Br)cc2[nH]1 [Example 948, (R)-(4-(6-bromo-1H-benzo[d]imidazol-2-yl)-6,7-dihydro-1H-imidazo[4,5-c]pyridin-5(4H)-yl)(thiazol-5-yl)methanone] |
| < 500 nM | O=C(c1nc(Cl)cs1)N1CCc2[nH]cnc2[C@H]1c1nc2ccc(Br)cc2[nH]1 [Example 949, (S)-(4-(6-bromo-1H-benzo[d]imidazol-2-yl)-6,7-dihydro-1H-imidazo[4,5-c]pyridin-5(4H)-yl)(4-chlorothiazol-2-yl)methanone] |
| 1000 to 5000 nM | O=C(c1nc(Cl)cs1)N1CCc2[nH]cnc2[C@@H]1c1nc2ccc(Br)cc2[nH]1 [Example 950, (R)-(4-(6-bromo-1H-benzo[d]imidazol-2-yl)-6,7-dihydro-1H-imidazo[4,5-c]pyridin-5(4H)-yl)(4-chlorothiazol-2-yl)methanone] |
| > 5000 nM | O=C(C1CC1)N1CCc2[nH]cnc2[C@@H]1c1nc2ccc(Br)cc2[nH]1 [Example 951, (R)-(4-(6-bromo-1H-benzo[d]imidazol-2-yl)-6,7-dihydro-1H-imidazo[4,5-c]pyridin-5(4H)-yl)(cyclopropyl)methanone] |
| 500 to 1000 nM | O=C(C1CC1)N1CCc2[nH]cnc2[C@H]1c1nc2ccc(Br)cc2[nH]1 [Example 952, (S)-(4-(6-bromo-1H-benzo[d]imidazol-2-yl)-6,7-dihydro-1H-imidazo[4,5-c]pyridin-5(4H)-yl)(cyclopropyl)methanone] |
| 1000 to 5000 nM | O=C(CC1CC1)N1CCc2[nH]cnc2[C@@H]1c1nc2ccc(Cl)cc2[nH]1 [Example 953, (R)-1-(4-(6-chloro-1H-benzo[d]imidazol-2-yl)-6,7-dihydro-1H-imidazo[4,5-c]pyridin-5(4H)-yl)-2-cyclopropylethanone] |
| < 500 nM | O=C(CC1CC1)N1CCc2[nH]cnc2[C@H]1c1nc2ccc(Cl)cc2[nH]1 [Example 954, (S)-1-(4-(6-chloro-1H-benzo[d]imidazol-2-yl)-6,7-dihydro-1H-imidazo[4,5-c]pyridin-5(4H)-yl)-2-cyclopropylethanone] |
| 500 to 1000 nM | O=C(c1nc(Cl)cs1)N1CCc2[nH]cnc2[C@H]1c1nc2ccc(Cl)cc2[nH]1 [Example 955, (S)-(4-(6-chloro-1H-benzo[d]imidazol-2-yl)-6,7-dihydro-1H-imidazo[4,5-c]pyridin-5(4H)-yl)(4-chlorothiazol-2-yl)methanone] |
| > 5000 nM | O=C(c1nncs1)N1CCc2[nH]cnc2[C@@H]1c1nc2ccc(Cl)cc2[nH]1 [Example 957, (R)-(4-(6-chloro-1H-benzo[d]imidazol-2-yl)-6,7-dihydro-1H-imidazo[4,5-c]pyridin-5(4H)-yl)(1,3,4-thiadiazol-2-yl)methanone] |
| 500 to 1000 nM | O=C(c1nncs1)N1CCc2[nH]cnc2[C@H]1c1nc2ccc(Cl)cc2[nH]1 [Example 958, (S)-(4-(6-chloro-1H-benzo[d]imidazol-2-yl)-6,7-dihydro-1H-imidazo[4,5-c]pyridin-5(4H)-yl)(1,3,4-thiadiazol-2-yl)methanone] |
